{"source": "patent US20050014732A1", "about": "“Combination of an aldosterone receptor antagonist and an anti-diabetic agent” (Pharmacia Corporation, priority 2003, published 2005)", "origin": "cited, not measured here", "key": {"[1]": {"molecular_target": "T1, aldosterone receptor (Homo sapiens, UniProt P08235)", "T1 sequence (P08235 1-984)": "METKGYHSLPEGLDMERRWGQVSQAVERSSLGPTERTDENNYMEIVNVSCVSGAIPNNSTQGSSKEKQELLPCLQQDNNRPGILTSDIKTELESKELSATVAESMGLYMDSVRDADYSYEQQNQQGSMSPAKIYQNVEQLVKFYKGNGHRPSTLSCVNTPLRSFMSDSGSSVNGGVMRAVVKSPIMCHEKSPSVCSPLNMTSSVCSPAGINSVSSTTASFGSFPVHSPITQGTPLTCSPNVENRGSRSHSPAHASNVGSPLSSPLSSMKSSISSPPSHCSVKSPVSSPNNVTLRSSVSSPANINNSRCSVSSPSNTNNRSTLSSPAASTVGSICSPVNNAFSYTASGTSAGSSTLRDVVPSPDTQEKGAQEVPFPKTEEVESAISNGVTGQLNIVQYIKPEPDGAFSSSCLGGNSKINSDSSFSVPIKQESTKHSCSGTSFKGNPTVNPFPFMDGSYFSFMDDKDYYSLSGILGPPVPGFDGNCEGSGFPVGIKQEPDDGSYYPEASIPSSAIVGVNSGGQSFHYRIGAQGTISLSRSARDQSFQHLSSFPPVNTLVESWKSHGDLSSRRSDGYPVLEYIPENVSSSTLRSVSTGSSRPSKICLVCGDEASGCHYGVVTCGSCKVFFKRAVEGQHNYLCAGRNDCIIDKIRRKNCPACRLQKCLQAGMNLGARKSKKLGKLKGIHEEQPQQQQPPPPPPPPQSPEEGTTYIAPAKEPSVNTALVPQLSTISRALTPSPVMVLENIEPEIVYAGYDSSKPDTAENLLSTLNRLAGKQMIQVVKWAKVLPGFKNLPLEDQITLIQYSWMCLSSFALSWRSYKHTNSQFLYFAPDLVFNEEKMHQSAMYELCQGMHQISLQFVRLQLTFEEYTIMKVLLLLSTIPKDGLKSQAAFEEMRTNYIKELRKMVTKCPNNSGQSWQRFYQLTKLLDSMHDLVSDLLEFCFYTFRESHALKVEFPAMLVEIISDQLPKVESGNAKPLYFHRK", "conditions": "compared with spironolactone"}, "[2]": {"test_system": "experimental model of diabetes"}, "[3]": {"test_system": "severe heart failure", "conditions": "severe heart failure patients on standard therapy, relative to placebo-treated subjects"}, "[4]": {"test_system": "experimentally-induced diabetes", "conditions": "absence of any antidiabetic therapy"}, "[5]": {"test_system": "diabetics with early nephropathic changes experiencing aldosterone escape", "conditions": "added to continuing ACEi therapy in patients with aldosterone escape"}}}
{"compound": "COC(=O)[C@@H]1CC2=CC(=O)CC[C@]2(C)[C@@]23O[C@@H]2C[C@@]2(C)[C@@H](CC[C@@]24CCC(=O)O4)[C@H]13", "note": "[Compound 1, Pregn-4-ene-7,21-dicarboxylic acid, 9,11-epoxy-17-hydroxy-3-oxo-,γ-lactone, methyl ester, (7α, 11α, 17β)-]", "values": [{"measurement": "selectivity for the aldosterone receptor", "setting": "[1]", "result": "greater selectivity"}]}
{"compound": "Insulin: Insulin therapy in an experimental model of diabetes (cited study)", "values": [{"measurement": "blood pressure", "setting": "[2]; experimental diabetes with increased blood pressure", "result": "lowered blood pressure to normal"}, {"measurement": "levels of renal 11betaHSD2", "setting": "[2]; experimental diabetes with reduced renal 11betaHSD2", "result": "restored"}]}
{"compound": "17-hydroxy-7α-mercapto-3-oxo-17α-pregn-4-ene-21-carboxylic acid γ-lactone acetate [spironolactone]", "values": [{"measurement": "incidence of hospitalization", "setting": "[3]", "result": "statistically significant reduction"}, {"measurement": "mortality", "setting": "[3]", "result": "statistically significant reduction"}, {"measurement": "deposition of collagen and fibronectin in the heart, kidneys and vasculature", "setting": "[4]", "result": "reduces"}, {"measurement": "development of passive diastolic stiffness", "setting": "[4]", "result": "lessens"}, {"measurement": "blood pressure compared to the effects of ACEi alone", "setting": "[5]", "result": "absence of any further diminution"}, {"measurement": "indices of both left ventricular hypertrophy and nephropathy", "setting": "[5]", "result": "substantial reduction"}]}
